“Also recorded” adds a separate entry of the source. Like-named read-outs stand apart in the source and are kept apart here. Marks after values point to notes of the source that are not given here.
Assays:
[1] = test system: phosphorylated GSK-3β (pGSK-3β); assay type: in vivo, mice; conditions: of the PBS group; testes homogenate, densitometry; FIGS. 13A-B
Experimental: (§1) Frozen testes were homogenized in 1 ml of RIPA lysis buffer containing protease inhibitor cocktail and phosphatase inhibitor cocktail II. The tissue was then pulverized with a Dounce homogenizer and the homogenate subjected to centrifugation at 14,000 g for 15 minutes. The supernatant was collected and used for protein determination using Bradford reagent. Tissue samples were denatured in reducing buffer (62 mM Tris [pH 6.8], 10% glycerol, 2% sodium dodecyl sulfate [SDS], 5% f3-mercaptoethanol and 0.003% bromophenol blue) and separated by electrophoresis on an SDS (12%) polyacrylamide gel at 35 mA. The separated proteins were transferred onto a nitrocellulose membrane using the transfer buffer (39 mM glycine, 48 mM Tris [pH 8.3] and 20% methanol) at 20 V at 4° C. overnight. The membranes were stained with Ponceau S (0.005% in 1% acetic acid) to confirm equal amounts of protein, and blocked with 5% non-fat dry milk in Tris buffered saline with 0.1% TWEEN (TBS-T) for 1 hour at room temperature, and washed three times for 10 minutes each time in TBS-T. The following primary rabbit monoclonal antibodies were used: anti-human phospho-Akt1/2/3, anti-human GSK-3β and anti-human phospho-GSK-3β. Mouse antibody against chicken α-tubulin was used in order to confirm that the protein load was similar in all lanes. Membranes were incubated with the appropriate diluted antibody overnight at 4° C. After being washed three times for 10 minutes each time in TBS-T, the membranes were incubated for 1 hour at room temperature with peroxidase-conjugated goat anti-rabbit or goat anti-mouse IgG antibody. After washing, the membranes were analyzed by an enhanced chemiluminescence system according to the manufacturer's protocol (Pierce). Densitometry was conducted in order to quantify differences in band intensity using the Image J image-processing program (NIH, Bethesda, Md., USA). Results were normalized by comparison to the values in the PBS control group in each membrane.
(§2) Phosphorylation of Akt and GSK-3β was determined using gel electrophoresis and Western blotting, as described in the Materials and Methods section.

[2] = test system: phosphorylated Akt (pAkt); assay type: in vivo, mice; conditions: relative to the PBS group; testes homogenate, densitometry; FIGS. 12A-B
Experimental: as §1, §2

[3] = test system: tumor models in mice and humans; conditions: cited from earlier work
Balb/c male mice [4] = experiment: Effect of treatments on testicular weight (procarbazine-induced testicular damage); assay type: in vivo; conditions: AS101 10 μg/mouse ip every other day, FIG. 3
Description: Inbred Balb/c male mice, aged 5-6 weeks, were used. To ensure the fertility of the mice, each mouse was placed with two young healthy females.
(§3) The administration protocols for the four groups are depicted in FIG. 1.
Weights were normalized to the weight of the mouse. Each group contained 10 mice.

cancer patients = conditions: AS101 in combination with chemotherapy; cited from earlier work
Balb/c male mice [5] = assay type: in vivo; conditions: Cy 200 mg/kg ip weekly for 5 weeks, AS101 10 μg/mouse ip every other day; for testicular histology (seminiferous tubules, cross sections): FIGS. 7A-7D
Experimental: (§4) The removed testes were pierced with a needle and fixed in Bouin's fixative. After 24 hours, testes were washed three times and maintained in 70% ethanol. Samples were then embedded in paraffin and sectioned. Tissue sections (5 μm) were then stained using hematoxylin/eosin and examined randomly under a light microscope (AX70, Olympus, Tokyo, Japan) under ×100 magnification.
(§5) Ten mice were injected intraperitoneally (ip) with 200 mg/kg of cyclophosphamide (Cy) once a week for a period of 5 weeks (Cy group).
(§6) Another ten mice (Cy+AS101 group) were co-treated with Cy as described for the Cy group and with i.p. injections of AS101 at a dosage of 10 μg/mouse every other day, starting 1 week before the first Cy injection and continuing during the 5 weeks of Cy treatment.
(§7) An additional group of ten mice were injected with PBS only (PBS group), and another ten mice were treated with i.p. injections of AS101 at a dosage of 10 μg/mouse every other day (AS101 group), as described for the Cy+AS101 group. The animals from all groups were sacrificed 5 weeks after the last injection by cervical dislocation, and body weights were determined; thereafter, epididymides and testes were quickly dissected out, weighed and fixed.

mice = conditions: cited from earlier work
Balb/c male mice [6] = conditions: Cy 200 mg/kg ip once a week for 5 weeks; for Body weight / Epididymis weight / Epididymis weight (normalized to body weight) / Testes weight / Testes weight (normalized to body weight) / Sperm concentration: AS101 10 μg/mouse ip every other day; for Body weight / Epididymis weight / Epididymis weight (normalized to body weight) / Testes weight / Testes weight (normalized to body weight): sacrificed 5 weeks after last injection; for Sperm concentration: epididymal sperm
Experimental: In order to recover the motile epididymal spermatozoa, the two caudal epididymides were placed in M2 medium (Sigma), minced with fine scissors and incubated at 37° C. in an atmosphere of 95% air and 5% CO2 for 15 minutes prior to careful removal of all medium. Samples were then diluted to a final volume of 1 ml in M2. The concentration of sperm cells in the medium was then evaluated using a hemocytometer, and the samples were frozen at −80° C.
as §5, §6, §7
Body weight, testes weight, testes weight normalized to body weight, epididymis weight, epididymis weight normalized to body weight, and sperm concentration were determined for the mice of each of the 4 treatment groups.

testicular cells = experiment: Analysis of testicular damage by DNA flow cytometry (procarbazine); assay type: in vivo; conditions: PCB single dose 200 mg/kg; propidium iodide flow cytometry; 5 mice per group; FIG. 6
Experimental: Quantification of DNA content in testicular cell populations by propidium iodide staining followed by flow cytometry is an objective, rapid, and robust method for the analysis spermatogenic damage. The method provides quantitative values for evaluating the changes in the proportion in the number of 1N (mature and immature haploid), 2N (diploid), and 4N (tetraploid) cells in the testis. The method was performed as previously described (Malkov at al., 1998). Briefly, testes were dissected, decapsulated, and the contents of the testes were transferred into a tube containing 5 ml ice-cold separation medium. Then, a collagenase solution was added and incubation was carried out for 5 minutes at 37° C. under vigorous shaking. The seminiferous cords were allowed to sediment to the bottom of the tube while being incubated on ice. The seminiferous cords were washed twice in 10 ml separation medium, re-suspended in separation medium containing 2.5 mg/ml trypsin and 1U/ml DNase I, incubated for 2 minutes at 37° C., and transferred to ice. Using a Pasteur pipette, the seminiferous cords was disintegrated into single cells and were then filtered through a […] nylon mesh, washed twice with separation medium (centrifugation at 200-300 g), and counted. For FACS analysis, testicular cells were brought to a concentration of 2-3×10^6 cells/ml in separation medium and diluted 1:1 with propidium iodide solution (10 mM Tris pH 8, 1 mM NaCl, 0.1% Nonidet P-40, 0.7 mg/ml Rnase A, and 0.05 mg/ml propidium iodide). Cells were analyzed by a Becton-Dickinson (San Francisco, Calif.) FACSort instrument, equipped with an argon laser, within 2 hours from staining. Excitation was at 488 nm and emission at 585 nm. The parameters measured for each cell were forward scatter (FSC-H), side scatter (SSC-H), and total fluorescence emitted from the cell (FL2-A).
(§8) Each group contained 5 mice.

Balb/c male mice [7] = experiment: Histological evaluation of testicular damage (procarbazine); assay type: in vivo; conditions: three weekly injections of 200 mg/kg PCB; 5 mice per group; FIGS. 2A-2C
Experimental: as §4, §3, §8

Balb/c male mice [8] = experiment: Evaluation of male fertility (procarbazine); assay type: in vivo; conditions: females mated with treated males, PCB single dose 200 mg/kg
Experimental: (§9) Fertility assays were performed on the “chemotherapy only” group, “chemotherapy+AS101” group, and control (PBS) group. Each male was placed with three young virgin females, aged 6 weeks. These females were examined daily for vaginal plugs. Once mating was documented, females were separated, and the pregnancies allowed to progress. […] The number of pregnant females and litter size was noted.
Each group contained 5 male mice.

sperm nuclear DNA = assay type: in vivo, mice; conditions: Cy 200 mg/kg ip weekly for 5 weeks; AS101 10 μg/mouse ip every other day; FIG. 9
Experimental: as §5, §6, §7

Balb/c male mice [9] = assay type: in vivo; conditions: females mated with treated males, Cy 200 mg/kg ip weekly for 5 weeks
Experimental: as §9, §5, §6, §7

Q: With Cl[TeH]1(Cl)(Cl)OCCO1.N [AS101, ammonium trichloro(dioxyethylene-O,O′)tellurate] as the compound, how does the “level of phosphorylated GSK-3β (pGSK-3β)” value [1] read?
A: 130.3±16.9%

Q: What about the “average level of phosphorylated Akt (pAkt)” value [2] of the same compound?
A: 175.3±28.4%

Q: What about the “combination effect with Cy” value ([3]; treatment of tumor-bearing mice) of the same compound?
A: synergistic effect with Cy

Q: And the anti-tumoral effect ([3]; variety of tumor models in mice and humans)?
A: clear anti-tumoral effect

Q: What about the “effect of AS101 alone on testicular weight” value (Balb/c male mice [4]; no PCB) of the same compound?
A: no significant effect

Q: And the “severity of neutropenia, thrombocytopenia and alopecia that accompany chemotherapy” value (cancer patients)?
A: significant reduction in the severity of neutropenia, thrombocytopenia, and alopecia

Q: And the “testicular histology (seminiferous tubules, cross sections)” value (Balb/c male mice [5])?
A: normal cellular content; also recorded: no effect on testicular histology

Q: What about the “protection from hematopoietic damage” value (mice; lethal and sublethal doses of chemotherapeutic drugs, including cyclophosphamide) of the same compound?
A: protect mice from hematopoietic damage

Q: What about the survival of mice (mice; mice treated with various cytotoxic drugs or radiation) of the same compound?
A: increase the survival of mice

Q: What about the Body weight (Balb/c male mice [6]) of the same compound?
A: 26.2 ± 1.0 gram

Q: And the Epididymis weight (Balb/c male mice [6])?
A: 34.2 ± 4.2 mg

Q: What about the “Epididymis weight (normalized to body weight)” value (Balb/c male mice [6]) of the same compound?
A: 1.3 ± 0.1 mg/gram body weight

Q: And the Testes weight (Balb/c male mice [6])?
A: 105.7 ± 14.7 mg

Q: And the “Testes weight (normalized to body weight)” value (Balb/c male mice [6])?
A: 4.3 ± 0.3 mg/gram body weight

Q: And the Sperm concentration (Balb/c male mice [6])?
A: 22.5 ± 3.8 10^6 cells/ml

Q: Which “percentage of cells with 1N (haploid) DNA in the testes” value (testicular cells) does the source give for CNNCc1ccc(C(=O)NC(C)C)cc1 [PCB, Procarbazine] here?
A: 24.2±4.0%

Q: And the “percentage of cells with 2N (diploid) DNA in the testes” value (testicular cells)?
A: 54.9±4.2%

Q: What about the “percentage of cells with 4N (tetraploid) DNA in the testes” value (testicular cells) of the same compound?
A: 4.7±0.4%

Q: What about the average testicular weight (Balb/c male mice [4]; PCB single dose 200 mg/kg, normalized to mouse weight, 10 mice per group) of the same compound?
A: 1.9±0.2 mg per grams body weight

Q: And the “testicular histology (hematoxylin/eosin sections)” value (Balb/c male mice [7])?
A: empty and atrophic seminiferous tubules

Q: And the litter size (Balb/c male mice [8]; 5 male mice per group, FIG. 4)?
A: 1.4±2.9

Q: And the “percentage of impregnated females” value (Balb/c male mice [8]; FIG. 5)?
A: 20%

Q: Which results are given for O=P1(N(CCCl)CCCl)NCCCO1 (stereo not drawn) [Cy, cyclophosphamide]?
A: level of phosphorylated GSK-3β (pGSK-3β) [1]: 36.4±12.5%; average level of phosphorylated Akt (pAkt) [2]: 55.3±25.6%; average percentage of damaged seminiferous tubules (Balb/c male mice [5]; FIG. 8): 76.0±10.8%; testicular histology (seminiferous tubules, cross sections) (Balb/c male mice [5]): empty and atrophic seminiferous tubules; percentage of sperm cells with abnormal chromatin structure (% DFI) (sperm nuclear DNA): 44.7±1.0%; percentage of impregnated females (Balb/c male mice [9]; FIG. 10): 20.0±4.2%; litter size of females which did achieve pregnancy (Balb/c male mice [9]; FIG. 11): 4.3±1.4; deaths (Balb/c male mice [6]): no deaths occurred; Body weight (Balb/c male mice [6]): 22.8 ± 2.1 gram; Epididymis weight (Balb/c male mice [6]): 25.1 ± 2.9 mg; Epididymis weight (normalized to body weight) (Balb/c male mice [6]): 1.1 ± 0.1 mg/gram body weight; Testes weight (Balb/c male mice [6]): 46.3 ± 8.7 mg; Testes weight (normalized to body weight) (Balb/c male mice [6]): 1.98 ± 0.16 mg/gram body weight; Sperm concentration (Balb/c male mice [6]): 8.7 ± 1.6* 10^6 cells/ml

— patent publication US20110275709A1, “TELLURIUM-CONTAINING COMPOUNDS FOR AFFECTING MALE'S FERTILITY FOLLOWING CHEMOTHERAPY AND/OR RADIOTHERAPY” (BIOMAS LTD., priority 2009, published 2011)
